According to patent US7056679B2, “Target specific screening and its use for identifying target binders” (Antyra, Inc., priority 2001, dated 2006):

Legend:
DGI-2 = target: T1, DGI-2 (Homo sapiens, UniProt Q15004); assay: ELISA analysis of phage on DGI-2 polypeptide (specific binding); conditions: for DGI-2 (OD): binding to DGI-2 polypeptide (specific binding), phage ELISA units read at 405 nm; for DGI-2/LDH (OD): ratio of specific binding to non-specific binding
T1 construct: encompassed the entire DGI-2 open reading frame (ORF); His-tag of vector pIVEX2.3-MCS (inferred from the vector and from the reverse primer lacking a stop codon); made in house; host or cells: cell-free in vitro translation (Rapid Translation System RTS, Roche; E. coli lysate)
T1 sequence (Q15004 1-111): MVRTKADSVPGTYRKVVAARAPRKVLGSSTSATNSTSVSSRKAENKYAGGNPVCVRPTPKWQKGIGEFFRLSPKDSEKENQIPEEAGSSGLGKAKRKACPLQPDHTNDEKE
Protocol: To verify that the selected target binders bound to DGI-2, Elisa assays were performed with recombinant DGI-2. DGI-2 was subcloned and expressed using conventional methods as described below.
Protein yields were satisfactory, but most of protein was found in inclusion bodies. Next, DGI-2 was expressed using an in vitro translation system (Rapid Translation System RTS 5000, Roche Diagnostics GmbH, Mannheim Germany). For this system, the DGI-2 ORF was cloned into the pIVEX2.3-MCS vector (Roche Diagnostics) using restriction sites Nde I and Hind III, which were added to DGI-2 by PCR. […] The primers used for the PCR amplification were as follows: […]
(§1) For analysis of individual target binders, colonies were picked and phage prepared as described above using helper phage, M13KO7. Ninety-six-well microtiter plates were coated with 500 ng/well of specific target protein, 500 ng/well lactate dehydrogenase (LDH) irrelevant or non-specific target, 500 ng/well of positive control antibody raised against ETAG, and negative control of non-fat milk powder-PBS 2% at 4° C. overnight. Plates were then blocked with 350 microliters/well PBS containing 2% non-fat milk for 1 hr at room temperature. One hundred microliters per well of phage from isolated clones were added and plates were incubated at room temperature for 2 hr after centrifuging samples for 20 minutes at 3500 rpm at 4° C. The phage solution was then removed, and the wells were washed three times with PBS at room temperature. Antibody raised against M13 conjugated to horseradish peroxidase (Pharmacia) was diluted 1:3000 in PBS-Tween and added to each well (100 μl/well). Incubation was for 1 hr at room temperature, followed by washing with PBS-(0.5%) Tween 3 times as described. Color was developed by addition of ABTS solution (100 μl/well; Boehringer, Indianapolis, Ind.). Plates were analyzed at 405 nm. A clone was considered “positive” if the A405 of the well was ≧2-fold over background.

E-tag antibody = assay: ELISA analysis of phage on antibody raised against ETAG (positive control); conditions: peptide binding to E-tag antibody; phage ELISA units read at 405 nm
Protocol: as §1

[1] = system: lactate dehydrogenase (LDH); assay: ELISA analysis of phage on LDH (irrelevant, non-specific target); type: binding; conditions: for LDH (OD): peptide binding to LDH polypeptide (non-specific binding), phage ELISA units read at 405 nm; for LDH: DGI-9 binders, LDH control irrelevant protein, ratio over background
Protocol: as §1

| DGI-2 (OD) (DGI-2) | DGI-2/LDH (OD) (DGI-2) | LDH (OD) [1] [OD] | LDH [1] | Substance | ETAG (OD) (E-tag antibody) |
| --- | --- | --- | --- | --- | --- |
| 5.7 | 5.5 | 1.0 | – | DGKHLTKWSGRGWWSAWVGG (DGI-2-20R-3-B12; listed as Escherichia coli) | 15.5 |
| 8.6 | 8.3 | 1.0 | – | SRELGKWGRLWQDWSSGNFS (DGI-2-20R-3-C11; listed as Escherichia coli) | 18.9 |
| 1.5 | 1.4 | 1.1 | – | VAFGEQJRVAMAGTLWQRWR (VAFGEQIRVAMAGTLWQRWR; not fully specified; non-natural residue J; DGI-2-20R-3-D5; listed as Escherichia coli) | 8.5 |
| 3.7 | 2.8 | 1.3 | – | MSTLQGPGHLFQMLRRASLG (DGI-2-20R-4-H12; listed as Escherichia coli) | 10.9 |
| 2.7 | 2.5 | 1.1 | – | GSTRLRVTVRFCSETGTPGC (DGI-2-20F-PP-G6; listed as Escherichia coli) | 36.1 |
| 2.4 | 2.5 | 1.0 | – | SLLCVVCRPVSGGRALGGVP (DGI-2-20F-PP-B42; listed as Escherichia coli) | 21.5 |
| 4.7 | 4.5 | 1.1 | – | ISGQVWSSWRFPGWGGKLF (ISGQVWSSWRFPGWGGKF; DGI-2-20R-3-D10; listed as Escherichia coli) | 19.6 |
| 2.2 | 2.4 | 0.9 | – | SVSGGGVFGTGGRVRHQVSG (DGI-2-20F-PP-C5; listed as Escherichia coli) | 33.9 |
| 6.1 | 6.6 | 0.9 | – | RERWGTAWNLWTEGVVDVRP (DGI-2-20F-3-B5; listed as Escherichia coli) | 16.4 |
| 0.9 | 1.1 | 0.8 | – | RRTQPAYRSGADDRTSGFYCYVTSALSAGAWMPFLPRRLA (DGI-2-40F-3-A12; listed as Escherichia coli) | 4.6 |
| 2.5 | 2.2 | 1.1 | – | VLCLE#ALGLSGLGWRVVVGP (VLCLEALGLSGLGWRVVVGP; DGI-2-20F-PP-G4; listed as Escherichia coli) | 25.6 |
| 8.4 | 8.6 | 1.0 | – | RKGWGVFCIPGLRFCDWSDP (DGI-2-20R-3-B4; listed as Escherichia coli) | 17.4 |
| 1.8 | 2.0 | 0.9 | – | LAPMFLQNQVRTWAASRRPLPAGPSNARCETGSLSPWVPC (DGI-2-40F-3-B11; listed as Escherichia coli) | 7.9 |
| 2.3 | 2.5 | 1.0 | – | QGSAHVVRPPGVYDVPWKVGMFFHPQNWPNSWGRAYFRSG (DGI-2-40F-3-D12; listed as Escherichia coli) | 7.3 |
| 2.2 | 2.4 | 0.9 | – | VQSGRDLGGLLRGGTGTEASP (DGI-2-20F-PP-D3; listed as Escherichia coli) | 15.0 |
| 9.9 | 9.2 | 1.1 | – | GHGAGDWAAELFVCPVAFLTGFAWR (DGI-2-20R-4-H2; listed as Escherichia coli) | 12.9 |
| – | – | – | 0.9 | WDWSRFGAQLRGAILGRATG [DGI9-20M-4-A627] | – |
| – | – | – | 0.9 | SRLALSSQHGLSLVAGRRRG [DGI9-20M-4-A12] | – |

More lines, now with the values behind:

| Substance | DGI-2 (OD) (DGI-2) | DGI-2/LDH (OD) (DGI-2) | LDH (OD) [1] [OD] | LDH [1] | ETAG (OD) (E-tag antibody) |
| --- | --- | --- | --- | --- | --- |
| GLLFTSSPYQCFWVHCTLTMSPLSVLGDLSSTIGRMRASR (DGI-2-40F-3-C52; listed as Escherichia coli) | 1.0 | 1.3 | 0.8 | – | 4.6 |
| RWSLPAYLCRFVSQASCNSR (DGI-2-20R-3-C12; listed as Escherichia coli) | 1.6 | 1.6 | 1.0 | – | 14.6 |
| VCGQRVARMQLNKTIRKLDS (DGI-2-20F-PP-A6; listed as Escherichia coli) | 3.1 | 2.8 | 1.1 | – | 35.1 |
| GWGCSVPGILCVGGHRQGGG (DGI-2-20R-3-B11; listed as Escherichia coli) | 5.9 | 5.7 | 1.0 | – | 16.9 |
| SVTISTSCRTGCPAGYLRRD (DGI-2-20F-PP-D2; listed as Escherichia coli) | 2.2 | 3.1 | 0.7 | – | 30.8 |
| GMWIRPNGHMELQGGYTARS (GMWIRPNGHMFLQGGYTARS; DGI-2-20R-4-G8; listed as Escherichia coli) | 1.5 | 1.4 | 1.1 | – | 14.5 |
| GITGLFCLCLRSSQSI (DGI-2-20F-PP-D6; listed as Escherichia coli) [DGI-2-20F-P0P-D6] | 3.3 | 3.2 | 1.0 | – | 5.7 |
| GVVRAQQGLRYELQGDRYRLRRTQWLTVTYCSPSWAFAGC (DGI-2-40F-3-B116; listed as Escherichia coli) | 1.7 | 2.0 | 0.8 | – | 6.5 |
| VSGVPDGSMRAAQLASGYWC (DGI-2-20F-PP-G2; listed as Escherichia coli) | 2.4 | 2.1 | 1.1 | – | 5.6 |
| LGRIVRPCVVRLCGGV##GV (LGRIVRPCVVRLCGGVGV; DGI-2-20F-PP-G10; listed as Escherichia coli) | 2.5 | 2.0 | 1.2 | – | 30.1 |
| RRFVRCSVPVALRSAVPVSV (DGI-2-20F-PP-A10; listed as Escherichia coli) | 2.4 | 2.4 | 1.0 | – | 16.3 |
| MAGFRGSGLSGYSEARLPRV [DGI9-20M-4-E3] | – | – | – | 1.0 | – |
| TSCQVMFLAGQHLLSRVPRL (DGI-2-20R-3-B6; listed as Escherichia coli) [DGL-2-20R-3-B6] | 2.8 | 2.7 | 1.0 | – | 11.7 |
| VQFAMTLSSRLWQHARHPLTDDAPPTVSFGTRRETLAGKA (DGI-2-40F-3-D3; listed as Escherichia coli) | 0.9 | 1.1 | 0.9 | – | 0.9 |
| FLLQDFIMDAGSFVKPIGVG [DGI9-20M-4-A414] | – | – | – | 1.1 | – |
